The source of these data is publication PMC8748775, “The sphingosine 1-phosphate receptor 2/4 antagonist JTE-013 elicits off-target effects on sphingolipid metabolism” (Scientific Reports, 2022).

In one data set the target is T1, S1P lyase (Homo sapiens, UniProt O95470).
T1 construct: gene SGPL1; FLAG-tagged human S1P lyase overexpressed in HEK293T cells (whole cell lysate)
T1 sequence (O95470 1-568): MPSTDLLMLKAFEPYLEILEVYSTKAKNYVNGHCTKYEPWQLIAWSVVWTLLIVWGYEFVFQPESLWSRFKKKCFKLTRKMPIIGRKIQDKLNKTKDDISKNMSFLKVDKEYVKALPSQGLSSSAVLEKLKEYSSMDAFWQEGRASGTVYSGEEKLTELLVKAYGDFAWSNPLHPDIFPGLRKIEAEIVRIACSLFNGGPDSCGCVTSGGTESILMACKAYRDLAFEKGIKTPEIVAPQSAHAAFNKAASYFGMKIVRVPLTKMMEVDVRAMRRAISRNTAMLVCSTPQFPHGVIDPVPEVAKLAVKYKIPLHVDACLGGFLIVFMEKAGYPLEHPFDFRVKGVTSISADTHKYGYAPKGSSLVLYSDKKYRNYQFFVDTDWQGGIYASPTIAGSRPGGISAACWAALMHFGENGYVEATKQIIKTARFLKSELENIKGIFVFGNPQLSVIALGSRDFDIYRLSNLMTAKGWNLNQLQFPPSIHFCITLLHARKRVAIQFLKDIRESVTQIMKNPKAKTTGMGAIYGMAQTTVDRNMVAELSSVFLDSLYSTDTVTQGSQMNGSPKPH
In words: fluorogenic S1P lyase assay in overexpressing lysate, […] DOP. Type of data set: cell-based.

Data set [1] addresses T2, sphingosine kinase 1 (SK1) (Homo sapiens, UniProt Q9NYA1).
T2 construct: gene SPHK1; purified recombinant human SK1
In words: in vitro radiometric [γ-32P]ATP sphingosine kinase assay with purified enzyme. Format: biochemical.

The target in data set [2] is T3, dihydroceramide desaturase 1 (Des1) (Homo sapiens, UniProt O15121).
T3 construct: gene DEGS1; Des1-FLAG (C-terminal FLAG), expressed in HEK293T cells; with cytochrome B5 (CYB5)
In words: HPLC NBD-C6-dhCer conversion; Ki from Des1-overexpressing HEK293T lysates, competitive inhibition confirmed with purified Des1-FLAG plus CYB5. Format: biochemical.

For data set [3], the target named is T4, sphingosine kinase 2 (SK2) (Homo sapiens, UniProt Q9NRA0).
T4 construct: gene SPHK2; purified recombinant human SK2
T4 sequence (Q9NRA0 1-654): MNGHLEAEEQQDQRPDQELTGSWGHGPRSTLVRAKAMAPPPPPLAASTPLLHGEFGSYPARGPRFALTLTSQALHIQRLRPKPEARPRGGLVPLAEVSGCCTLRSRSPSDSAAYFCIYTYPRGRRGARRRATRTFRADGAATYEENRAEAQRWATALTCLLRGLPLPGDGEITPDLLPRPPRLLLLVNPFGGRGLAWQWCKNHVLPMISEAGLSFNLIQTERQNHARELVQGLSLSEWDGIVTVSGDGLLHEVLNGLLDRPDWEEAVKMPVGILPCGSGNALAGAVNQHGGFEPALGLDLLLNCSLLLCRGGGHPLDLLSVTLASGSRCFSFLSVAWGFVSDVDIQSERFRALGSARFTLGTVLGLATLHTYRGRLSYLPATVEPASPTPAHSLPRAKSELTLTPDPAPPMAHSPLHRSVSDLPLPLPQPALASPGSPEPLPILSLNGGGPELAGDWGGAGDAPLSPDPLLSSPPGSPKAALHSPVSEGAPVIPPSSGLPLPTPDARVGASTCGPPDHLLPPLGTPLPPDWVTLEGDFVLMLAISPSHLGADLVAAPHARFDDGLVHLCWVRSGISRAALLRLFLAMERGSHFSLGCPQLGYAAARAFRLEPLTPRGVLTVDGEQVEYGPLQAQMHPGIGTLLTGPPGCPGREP
As to the kind of experiment: in vitro radiometric [γ-32P]ATP sphingosine kinase assay with purified enzyme. Format: biochemical.

Substrate in data set [4]: CCCCCCCCCCCCCCC[C@@H](O)[C@H](CO)NC(=O)CCCCCNc1ccc([N+](=O)[O-])c2nonc12
In words: HPLC conversion to NBD-C6-Cer; KM from Des1-overexpressing lysates, turnover also with purified Des1-FLAG. To be noted: NADPH; iron ((NH4)2Fe(SO4)[…] in purified assay). Type of data set: biochemical, Homo sapiens.

T3 sequence (P00167 2-134 partner, one chain of several): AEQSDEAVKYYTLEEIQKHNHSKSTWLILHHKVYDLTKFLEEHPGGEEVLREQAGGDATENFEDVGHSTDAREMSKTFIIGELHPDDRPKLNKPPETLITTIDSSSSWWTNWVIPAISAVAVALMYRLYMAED
T2 sequence (Q9NYA1 whole entry): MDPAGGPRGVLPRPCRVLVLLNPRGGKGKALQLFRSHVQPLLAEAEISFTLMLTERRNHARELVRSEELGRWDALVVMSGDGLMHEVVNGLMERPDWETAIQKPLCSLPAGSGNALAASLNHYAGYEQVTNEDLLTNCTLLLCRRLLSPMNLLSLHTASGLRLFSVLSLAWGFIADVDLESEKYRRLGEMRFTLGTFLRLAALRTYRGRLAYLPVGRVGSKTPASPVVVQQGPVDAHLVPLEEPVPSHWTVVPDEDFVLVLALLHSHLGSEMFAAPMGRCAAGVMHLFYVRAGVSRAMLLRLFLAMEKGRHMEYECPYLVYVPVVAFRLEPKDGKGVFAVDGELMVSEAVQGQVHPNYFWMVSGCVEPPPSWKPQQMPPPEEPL

Take `Cc1ncc(CO)c(C)c1O` [DOP, 4-deoxypyridoxine]: the “fluorogenic S1P lyase assay in overexpressing lysate, 1.25 mM DOP” value on S1P lyase is “known S1P lyase inhibitors 4-deoxypyridoxine and FTY720 both showed inhibition of S1P lyase activity”.

Broadly, the IC50 is the concentration that gives 50% inhibition. Higher therefore signals a need for much substance. Usually Ki stands for a measure of affinity in units of concentration, obtained from inhibition or displacement. For `Cc1nn(C)c2nc(NNC(=O)Nc3c(Cl)cncc3Cl)cc(C(C)C)c12` [JTE-013], the IC50 in data set [1] was determined as 25.1 ± 2.7 µM; in data set [3] it was 4.3 ± 0.5 µM. Further, the Ki in data set [2] turned out to be 9.2 ± 0.8 µM.

B1: dihydroceramide desaturase 1 (Des1) (Homo sapiens) (protein)
chain: GSRVSREDFEWVYTDQPHADRRREILAKYPEIKSLMKPDPNLIWIIIMMVLTQLGAFYIVKDLDWKWVIFGAYAFGSCINHSMTLAIHEIAHNAAFGNCKAMWNRWFGMFANLPIGIPYSISFKRYHMDHHRYLGADGVDVDIPTDFEGWFFCTAFRKFIWVILQPLFYAFRPLFINPKPITYLEVINTVAQVTFDILIYYFLGIKSLVYMLAASLLGLGLHPISGHFIAEHYMFLKGHETYSYYGPLNLLTFNVGYHNEHHDFPNIPGKSLPLVRKIAAEYYDNLPHYNSWIKVLYDFVMDDTISPYSRMKRHQKGEMVLE
notes: Des1-FLAG (C-terminal FLAG), expressed in HEK293T cells; with cytochrome B5 (CYB5)
By Km is commonly meant the substrate concentration at which the rate is half of its maximum. Regarding B1, the Km in data set [4] amounted to 0.3 µM.
